Test results: patent US12226405B2, “Compounds and compositions for inhibiting the activity of HIF2-alpha and their methods of use” (Novartis AG, priority 2020, dated 2025)

Assays:
[1] = tested on: HIF2α-regulated expression of the endogenous target gene hEGLN3 in 786-O cells; assay: Cellular iScript assay for HIF2α (quantitative RT-PCR of hEGLN3); format: cell-based, human; settings: Homo sapiens, 786-0, 48 hours incubation
Description: (§1) Stock solutions of compounds were prepared at a concentration of 10 mM in DMSO and stored at 4° C. Where necessary to afford a full dose-response curve, the stock solutions were pre-diluted in DMSO to 1,000-fold the desired reduced start concentration. On the day after cell seeding, eleven 2-fold serial dilutions of each compound were dispensed directly into the cell assay plates using either HP 300D non-contact Digital Dispenser (TECAN) or a ATS100 acoustic dispenser (EDC Biosystems).
Compound-mediated modulation of the HIF2α-regulated expression of the endogenous target gene hEGLN3 (OMIM: 606426), as well as beta-actin (OMIM: 102630) as a house-keeping control, was assess in 786-O cells (RRID CVCL_1051) using a quantitative RT-PCR approach. In short, 786-O cells were maintained in growth medium composed of DMEM (GIBCO #11995-065), 2 mM L-Glutamine (BioConcept #5-10K50-H), 1× Penicillin/Streptomycin (BioConcept #4-01F00-H), 10% fetal calf serum (Gibco #A31608-01), 1 mM Sodium pyruvate (BioConcept #5-60F00-H). Cells were seeded at 1,000 cells/20 μL/well into white-wall, clear-bottom 384-well plates (Greiner #781098) and incubated over night at 37° C. prior to addition of serial compound dilutions as described above. Following incubation for 48 hours at 37° C., medium supernatant was discarded and the plate blotted dry by inverting on a tissue. The same procedure was repeated following one wash with 20 μL phosphate-buffered saline. Following addition of 25 μL/well iScript sample preparation reagent (BioRad #170-8899) using a 16-channel Matrix pipette, the plate was incubated for 2 min at room temperature. 20 μL lysate supernatant was then removed and transferred to a new 384 well plate (Costar #3656) and diluted 1:3 by adding 5 μL of the lysate to 10 μL H2O using a Bravo liquid handler (Agilent). 2 μL of the diluted lysate was added to the 8 μL of a mastermix containing 5 μL iTaq Universal Probes One-step kit (BioRad #172-5141), 0.25 μL iScript reverse transcription supermix (BioRad #1708840), 0.25 μL 40×HEX-ZEN-labeled TaqMan probe for beta-actin (IDT #Hs.PT.39a.22214847: Probe 5′ HEX-TCA TCC ATG/ZEN/GTG AGC TGG CGG-3′ (SEQ ID NO: 2) Iowa Black FQ, Primer 1: ACA GAG CCT CGC CTT TG (SEQ ID NO: 3); Primer 2: CCT TGC ACA TGC CGG (SEQ ID NO: 4) AG), 0.25 μL, 40×FAM-ZEN-labeled TaqMan probe for hEGLN3 (IDT #Hs.PT.58.189348: Probe 5′ 6-FAM-TTT GGC TTC/ZEN/TGC CCT TTC TTC AGC-3′ (SEQ ID NO: 5) Iowa Black FQ, Primer 1: CACGGTCAGTCTTCAGTGAG (SEQ ID NO: 6); Primer 2: CGCAACCAGATATGCTATGACT (SEQ ID NO: 7)), 2.25 μL RNase-free water, prelaid in a 384 well plate (ABI #4309849) using a 16-channel Matrix pipette. The plate was sealed with a PCR-compatible optical film (MicroAmp, ABI #4360954) and centrifuged (1500 rpm, 5 min, +4° C.) to collect all reagents in the bottom of the well and to remove bubbles. The plate content was amplified on a 7900HT thermal cycler (ABI) using the following conditions: Step 1: 50° C. for 10 min, Step 2: 95° C. for 3 min, Step 3 (40×): 95° C. for 15 s, 60° C. for 1 min. ROX (reaction volume 10 μL) was used as a passive reference. Data were collected with manual adjustment of the Ct threshold (beta-actin: 0.046, hEGLN3: 0.06) and were analyzed using the 2^(−ΔΔCt) method. Thus, for each sample, the following values were calculated: 2^(−Ct)a for beta-actin, 2^(−Ct)e for EGLN3, and 2^(−ΔCt) calculated as (2^(−Ct)e/2^(−Ct)a). The mean 2^(−ΔCt) as well as the corresponding standard deviation was calculated for each sample. Taking the DMSO-treated sample as a reference, the 2^(−ΔΔCt) for each sample was calculated as follows: 2^(−ΔΔCt)=2^(−ΔCt)sample/(2^(−ΔCt)DMSO). After calculating differential expression as 2^(−ΔΔCt) for each sample, it was then expressed as a percentage (×100) to obtain a dose-response curve in % of DMSO control and IC50s were calculated using a four-parametric fit model.

[2] = tested on: HIF2α-dependent transcription in 786-O-HRE-Luc cells; assay: In vitro cellular hypoxia response element (HRE) reporter gene assay (RGA) for HIF2α; format: cell-based, human; settings: Homo sapiens, 24 hours incubation
Description: as §1
The ability of compounds to inhibit HIF2α- and HIF1α-dependent transcription was assessed in 786-O-HRE-Luc and RCC4-HRE-Luc cells, respectively. The putative unselective inhibition of firefly luciferase activity or expression was assessed in 786-O-UB6-Luc and RCC4-UB6-Luc cells, respectively. The reporter lines were generated as follows: 786-O (RRID: CVCL_1051) and RCC4 (RRID: CVCL_0498) clear cell renal carcinoma cell lines were obtained from ATCC and Celeste Simon (University of Pennsylvania), respectively. Either cell line was transduced with a lentiviral vector in which the expression of a PEST-destabilized version of firefly-luciferase is under the control of either a minimal promoter coupled to four copies of a minimal hypoxia response element (HRE) sequence (pLenti 4×HRE Luc PEST), or a promoter from the house-keeping UBC gene (pLenti UB6 Luc PEST). In short, for the construction of the pLenti 4×HRE Luc PEST vector, 4×HRE DNA oligonucleotides were synthesized, annealed and cloned into pGL4.27 plasmid vector (Promega) predigested with NheI and HindIII restriction enzymes. The sequence of the two DNA oligonucleotides was as follows: NheI 4×HRE HindIII FWD: […] (SEQ ID NO: 8); NheI 4×HRE HindIII REV […] (SEQ ID NO: 9). The 4×HRE Luc PEST fragment was then PCRed from this plasmid with restriction enzyme sites NheI and XhoI at the two ends, and inserted into pLenti6/BLOCK iT DEST (Thermo Fisher Scientific) predigested with NheI and XhoI restriction enzymes. For the construction of the pLenti UB6 Luc PEST vector, the Luc PEST sequence was PCRed from pGL4.27 (Promega) using EcoRV and XhoI restriction enzymes at the two ends, and inserted into pLenti6/UBC/V5/DEST (Thermo Fisher Scientific) predigested with the same enzymes. 786-O and RCC4 cells (300,000 per well of a 6 well plate) were infected in the presence of 10 μg/ml polybrene with lentivirus harvested two days after transfection of HEK293-FT (ThermoFisher Scientific #R70007) cells (80% confluent in a 100 cm^2 dish) with a mix of 1.5 ml OptiMEM (ThermoFisher Scientific #31985062) containing 3 μg of the desired plasmids and 9 μl of ViralPower Packaging mix (ThermoFisher Scientific #K497500), and 1.5 ml OptiMEM containing 36 μl Lipofectamine 2000 (ThermoFisher Scientific #11668019). Successfully infected cells were selected using blasticidin (Gibco #A11139-03) at a final concentration of 5 μg/ml. The resulting stable cell lines were named 786-O pLenti 4×HRE Luc PEST (short: 786-O-HRE-Luc), 786-O pLenti UB6 Luc PEST (short: 786-O-UB6-Luc), RCC4 pLenti 4×HRE Luc PEST (short: RCC4-HRE-Luc) and RCC4 pLenti UB6 Luc PEST (short: RCC4-UB6-Luc). All 4 cell lines were maintained in growth medium composed of DMEM (GIBCO #11995-065), 2 mM L-Glutamine (BioConcept #5-10K50-H), 10% fetal calf serum (Gibco #A31608-01), 1× Penicillin/Streptomycin (BioConcept #4-01F00-H), 1 mM Sodium pyruvate (BioConcept #5-60F00-H) and 5 μg/ml blasticidin (Gibco #A11139-03) at 37° C. in a humidified 5% CO2 incubator.
For the reporter gene assay, the individual cell lines were seeded at 2,500 cells/20 μL/well into white-wall, clear-bottom 384-well plates (Greiner #781098) and incubated over night at 37° C. prior to addition of serial compound dilutions as described above. […]

[3] = molecular target: HIF2α PAS-B domain (236-350, biotinylated on the N-terminus) (Homo sapiens (Human), UniProt Q99814)
Sequence of HIF2α PAS-B domain (236-350, biotinylated on the N-terminus) (Q99814 236-350): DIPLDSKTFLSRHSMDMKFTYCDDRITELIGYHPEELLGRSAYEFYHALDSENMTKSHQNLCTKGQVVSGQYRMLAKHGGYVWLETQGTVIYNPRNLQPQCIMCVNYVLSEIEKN
Description: The assay buffer contained 50 mM Tris-HCl pH7 (Sigma), 20 mM NaCl (Fluka), 0.02% BSA (Sigma), 0.005% Triton X-100 (Pierce) and 1 mM DTT (Fluka). After a 30 min incubation period, 5 μL Streptavidin PVT SPA Beads (Perkin Elmer) at 1.2 mg/mL, diluted in the buffer, were added.

Row | Structure (SMILES) | IC50 [1] | IC50 [2] | IC50 [3]
1 | FC(F)OC1=CC(C(F)(F)F)=CN2CC3(CCCc4c(C(F)(F)F)cccc43)N=C12 (racemic) [Example 87, rac-8-(difluoromethoxy)-5′,6-bis(trifluoromethyl)-3′,4′-dihydro-2′H,3H-spiro[imidazo[1,2-a]pyridine-2,1′-naphthalene]] | 159 nM |  | 
2 | Fc1ccc2c(c1F)CC[C@@]21CN2C=C(C(F)(F)F)C=C(OC(F)F)C2=N1 [Example 2, (S)-8-(difluoromethoxy)-4′,5′-difluoro-6-(trifluoromethyl)-2′,3′-dihydro-3H-spiro[imidazo[1,2-a]pyridine-2,1′-indene]] | 152 nM | 1530 nM | 12 nM
3 | FC(F)OC1=CC(C(F)(F)F)=CN2C[C@@]3(CCc4cc(C(F)(F)F)ncc43)N=C12 [Example 3, (S)-8′-(difluoromethoxy)-3,6′-bis(trifluoromethyl)-5,6-dihydro-3′H-spiro[cyclopenta[c]pyridine-7,2′-imidazo[1,2-a]pyridine]] | 187 nM | > 10000 nM | 12 nM
4 | FC(F)OC1=CC(C(F)(F)F)=CN2C[C@@]3(CCc4cc(C(F)(F)F)ccc43)N=C12 [Example 6, (S)-8-(difluoromethoxy)-5′,6-bis(trifluoromethyl)-2′,3′-dihydro-3H-spiro[imidazo[1,2-a]pyridine-2,1′-indene]] | 84 nM | 250 nM | 
5 | FC(F)(F)C1=CN2C[C@@]3(CCc4c3ccc(Br)c4Cl)N=C2C(Cl)=C1 [Example 71, (S)-5′-bromo-4′,8-dichloro-6-(trifluoromethyl)-2′,3′-dihydro-3H-spiro[imidazo[1,2-a]pyridine-2,1′-indene]] | 181 nM |  | 20 nM
6 | FC(F)OC1=CC(C(F)(F)F)=CN2C[C@@]3(CCc4cc(Br)ccc43)N=C12 [Example 72, (5)-5′-bromo-8-(difluoromethoxy)-6-(trifluoromethyl)-2′,3′-dihydro-3H-spiro[imidazo[1,2-a]pyridine-2,1′-indene]] | 84 nM |  | 7 nM
7 | FC(F)OC1=CC(C(F)(F)F)=CN2C[C@@]3(CCc4ccccc43)N=C12 [Example 75, (S)-8-(difluoromethoxy)-6-(trifluoromethyl)-2′,3′-dihydro-3H-spiro[imidazo[1,2-a]pyridine-2,1′-indene]] | 183 nM |  | 76 nM
8 | Fc1cccc2c1CCC[C@@]21CN2C=C(C(F)(F)F)C=C(Cl)C2=N1 [Example 79, (S)-8-chloro-5′-fluoro-6-(trifluoromethyl)-3′,4′-dihydro-2′H,3H-spiro[imidazo[1,2-a]pyridine-2,1′-naphthalene]] | 70 nM |  | 5 nM
9 | O=C1CC[C@@]2(CN3C=C(C(F)(F)F)C=C(OC(F)F)C3=N2)c2ccc(Br)cc21 [Example 90, (S)-6′-bromo-8-(difluoromethoxy)-6-(trifluoromethyl)-2′,3′-dihydro-3H,4′H-spiro[imidazo[1,2-a]pyridine-2,1′-naphthalen]-4′-one] | 162 nM |  | 10 nM
10 | N#CC1=CN2C[C@@]3(CCSc4c3ccc(Br)c4F)N=C2C(OC(F)F)=C1 [Example 110, (S)-7′-bromo-8-(difluoromethoxy)-8′-fluoro-3H-spiro[imidazo[1,2-a]pyridine-2,4′-thiochromane]-6-carbonitrile] | 35 nM |  | 
11 | Fc1ccc2c(c1F)SCC[C@@]21CN2C=C(C(F)(F)F)C=C(OC(F)F)C2=N1 [Example 113, (S)-8-(difluoromethoxy)-7′,8′-difluoro-6-(trifluoromethyl)-3H-spiro[imidazo[1,2-a]pyridine-2,4′-thiochromane]] | 32 nM |  | 4 nM
12 | Fc1cccc2c1CSC[C@@]21CN2C=C(C(F)(F)F)C=C(OC(F)F)C2=N1 [Example 115, (S)-8-(difluoromethoxy)-8′-fluoro-6-(trifluoromethyl)-3H-spiro[imidazo[1,2-a]pyridine-2,4′-isothiochromane]] | 30 nM |  | ≤ 3 nM
13 | Fc1ccc2c(c1)CSC[C@@]21CN2C=C(C(F)(F)F)C=C(OC(F)F)C2=N1 [Example 116, (S)-8-(difluoromethoxy)-7′-fluoro-6-(trifluoromethyl)-3H-spiro[imidazo[1,2-a]pyridine-2,4′-isothiochromane]] | 46 nM |  | 6 nM
